Assay results taken from US7504412B2, “Imidazopyridine derivatives” (Banyu Pharmaceuticals, Co., Ltd., priority 2003, dated 2009).
Structures can show the parent of a compound that is named as a salt.

Key:
[1] = target: T1, human MCH-1R (Homo sapiens, UniProt Q99705); assay: MCH binding inhibition test; conditions: membrane samples from MCH-1R expression CHO-K1 cells, 50 pM [125I]MCH, 25° C., one hour; read-out: IC50 (50% inhibition concentration to specific [125I]MCH binding)
T1 construct: expressed in transfected cells; host or cells: CHO-K1 (American Type Culture Collection), membrane samples
T1 sequence (Q99705 whole entry): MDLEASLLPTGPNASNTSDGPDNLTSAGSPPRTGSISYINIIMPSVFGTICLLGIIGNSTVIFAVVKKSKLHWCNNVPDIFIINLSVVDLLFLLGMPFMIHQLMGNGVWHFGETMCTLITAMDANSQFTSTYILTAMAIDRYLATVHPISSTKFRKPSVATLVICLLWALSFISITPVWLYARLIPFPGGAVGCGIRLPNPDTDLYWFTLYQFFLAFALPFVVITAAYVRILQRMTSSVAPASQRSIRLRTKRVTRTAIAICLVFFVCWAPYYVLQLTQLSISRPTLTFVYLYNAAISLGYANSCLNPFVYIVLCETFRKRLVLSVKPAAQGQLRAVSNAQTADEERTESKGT
Method: A human MCH-1R encoding cDNA sequence [FEBS Letters, 398, 253 (1996); Biochimica et Biophisica Acta, 1401, 216 (1998)] was cloned to plasmid vector pEF/mic/cyto (Invitrogen Corporation). The obtained expression vector was transfected to a host cell CHO-K1 (American Type Culture Collection) using lipofectamine plus reagent (Life Technology Inc.) to provide MCH-1R expression cells.
Membrane samples prepared from the MCH-1R expression cells were incubated with each test compound and 50 pM of [^125I]MCH (NEN Co.), in an assay buffer (50 mM Tris buffer comprising 10 mM magnesium chloride, 2 mM ethylenediamine tetraacetate, 0.01% bacitracin and 0.2% bovine serum albumin; pH 7.4) at 25° C. for an hour, followed by filtration through Glass Filter GF/C (Wattman Co.). After washing the glass filter with 50 mM Tris buffer (pH7.4) comprising 10 mM magnesium chloride, 2 mM ethylenediamine tetraacetate and 0.04% Tween-20, radio activity on the glass filter was measured. Non-specific binding was measured in the presence of 1 μM human MCH and 50% inhibition concentration (IC50 value) of each test compound to specific [^125I] MCH binding was determined.

[2] = system: MCH-induced feeding behavior; assay: Antagonism test to MCH-induced feeding behavior; format: in vivo, rat; conditions: male SD rats satiated with high fat diet; 10 or 30 mg/kg oral, one hour before MCH 5 μg/head into third ventricle
Method: Ketamine-xylazine anesthetized (74 and 11 mg/kg single intraperitoneal administration) male SD rats (9-12 weeks old) were inserted with chronic guide cannule (26 gauge) into their third ventricle as fixed at a set cerebral location with dental resin. The position of the front end of the guide cannula was set to be 2.2 mm behind the bregma on median line and at a depth of 8 mm from the cranial surface. After two weeks' recovery term, the rats were fed with high fat diet for about 4 hours to satiation. Thereafter a needle (33 gauge) which was connected to a microsyringe was inserted into the guide cannula and through which melanin concentrating hormone (MCH, 5 μg/1 μL/head, as dissolved in artificial liquor cerebrospinalis) was administered into each rat's third ventricle. The compound of Example 17 (10 or 30 mg/kg) as suspended in 0.5% aqueous methylcellulose solution was orally administered to the rats an hour before the MCH administration. The rats were successively fed with high fat diet, and their feed intake during the two hours following the MCH administration was measured.
In this test, the feed intake in the case where MCH and artificial liquor cerebrospinalis (aCSF) alone was administered in place of the compound of the present invention was used as the reference.

| SMILES | IC50 [1] [nM] | feed intake during the two hours following MCH administration [2] |
| --- | --- | --- |
| Cc1c(C2CC2)nc2ccc(NC(=O)CCc3ccc(C(F)(F)F)cc3)cn12 [Example 18, N-(2-cyclopropyl-3-methylimidazo[1,2-a]pyridin-6-yl)-3-[4-(trifluoromethyl)phenyl]propanamide] | 4.3 | – |
| O=C(Nc1ccc2nc(C3CC3)c(CO)n2c1)c1ccc(-c2ccc(C(F)(F)F)cc2)cc1 [Example 36, N-[2-cyclopropyl-3-(hydroxymethyl)imidazo[1,2-a]pyridin-6-yl]-4′-(trifluoromethyl)[1,1′-biphenyl]-4-carboxamide] | 10.5 | – |
| Cc1c(C(C)(C)O)nc2ccc(NC(=O)c3ccc(-c4ccc(C(F)(F)F)cn4)cc3)cn12 [Example 32, N-[2-(1-hydroxy-1-methylethyl)-3-methylimidazo[1,2-a]-pyridin-6-yl]-4-[5-(trifluoromethyl)-2-pyridyl]benzamide] | 9.5 | – |
| Cc1c(C2CC2)nc2ccc(NC(=O)c3ccc(-c4ccccn4)cc3)cn12 [Example 17, N-(2-cyclopropyl-3-methylimidazo[1,2-a]pyridin-6-yl)-4-(2-pyridyl)benzamide hydrochloride] | 3.3 | dose-dependently inhibited increase in the amount of feed intake induced by the MCH |

Compounds with a lower IC50 [1], results first:

| IC50 [1] [nM] | SMILES | feed intake during the two hours following MCH administration [2] |
| --- | --- | --- |
| 2 | Cc1c(C2CC2)nc2ccc(NC(=O)c3ccc(-c4ccc(F)cc4)cn3)cn12 [Example 14, N-(2-cyclopropyl-3-methylimidazo[1,2-a]pyridin-6-yl)-5-(4-fluorophenyl)-2-pyridinecarboxamide hydrochloride] | – |
| 3.1 | CC(C)c1cn2cc(NC(=O)c3ccc(-c4ccc(F)cc4)cc3)ccc2n1 [Example 2, 4′-Fluoro-N-(2-isopropylimidazo[1,2-a]pyridin-6-yl)[1,1′-biphenyl]-4-carboxamide] | – |
